Data taken from PMC5891061, “Electrophysiological mechanisms of vandetanib-induced cardiotoxicity: Comparison of action potentials in rabbit Purkinje fibers and pluripotent stem cell-derived cardiomyocytes” (PLoS ONE, 2018).

What was measured:
hiPSC-CMs = assay: Spontaneous action potential recording in hiPSC-CMs (whole-cell current clamp); format: cell-based, human
Protocol: The hiPSC-CMs from human fibroblast cell lines (iCell Cardiomyocytes; Cellular Dynamics International, Madison, WI, USA) were purchased and cultured for single-cell electrophysiological recordings. Frozen vials of hiPSC-CMs were thawed in a water bath maintained at 37°C and mixed with ice-cold plating medium (iCell Cardiomyocyte Plating Medium, glucose-free). The cells were transferred to four-well culture plates containing 0.1% gelatin-coated glass coverslips and then maintained in a culture incubator at 37°C in an atmosphere of 93% air and 7% CO2. After 2 days of culture, the plating medium was replaced with culture medium (iCell Cardiomyocyte Maintenance Medium, glucose-free), which was then changed every 2 days. The hiPSC-CMs were cultured for 4 weeks and used at 7 to 28 days post-thaw for electrophysiological analysis. At this time, the amplitudes and intervals of the spontaneous APs are stabilized, and electrically connected syncytial layers are formed. […] The internal solution contained (in mM) 120 K-Asp, 20 KCl, 5 NaCl, 2 CaCl2, 10 HEPES, 5 EGTA, and 5 Mg-ATP (pH 7.25). We recorded typical APs in hiPSC-CMs in the current-clamp mode. The spontaneous beating activity or paced firing of single hiPSC-CMs were recorded, and only hiPSC-CMs that could beat stably were included in the analysis. Following stabilization of the AP waveforms, the average of six recorded APs for each test concentration was analyzed.
Using the patch-clamp technique, we measured the APs in spontaneously contracting cells isolated from hiPSC-CMs. […] Ventricular-type APs were distinguished based on the relatively more negative maximal diastolic potential (MDP) and rapid AP upstroke with long plateau phase.

SCN5A (INa) = biological target: T1, SCN5A (INa) (Homo sapiens, UniProt Q14524); assay: Whole-cell patch clamp, INa in SCN5A-transfected HEK293 cells; format: cell-based; details: for INa current: HEK293
T1 construct: expressed in transfected cells; host or cells: HEK293
Description: For various aspects of cardiac ion channel study, human embryonic kidney (HEK293; ATCC, Manassas, VA, USA) cells were transiently transfected using lipofectAmin2000 (Gibco BRL, New York, NY, USA) according to the manufacturer’s instructions. The hERG (human ether-ago-go-related gene corresponding to IKr), KCNQ1/KCNE1 (the gene corresponding to IKs), KCNJ2 (the gene corresponding to IK1) or SCN5A (the gene corresponding to INa) cDNA was co-transfected with green fluorescence protein, the surface marker protein, to allow assessment of the transfection efficiency. For the calcium current, enzymatically isolated single rat ventricular myocytes were used. Briefly, the hearts were rapidly excised from anaesthetized Sprague–Dawley rats (250–350 g) and perfused via the aorta on a Langendorff apparatus with an oxygenated normal Tyrode (NT) solution for 5 min. To clear the blood, then perfused with Ca^2+-free normal Tyrode solution for 3 min. Next, the heart was perfused with enzyme solution containing 0.6 mg/mL collagenase (Worthington Biomedical Corp., Lakewood, NJ, USA) for 30–40 min. Finally, this enzyme-containing solution was washed out for 5 min. with a high-K^+ and low-Cl^-) Kraft-Bruhe solution. Following the isolation procedure, the left ventricle was dissected out and agitated mechanically with a fire-polished Pasteur pipette in Kraft-Bruhe solution to obtain single myocytes. The isolated myocytes were stored at 4°C until use.
The external solution for recording the IhERG, IKs and INa channel currents was NT solution. […] Kraft-Bruhe solution for storage of the freshly isolated rat ventricular myocytes contained (in mM): 70 K-glutamate, 55 KCl, 10 HEPES, 3 MgCl2, 20 taurine, 20 KH2PO4, 0.5 ethylene glycol tetra acetic (K-EGTA) (pH 7.2 with KOH).
pCLAMP (Axon Instruments, Foster City, CA, USA), Origin 8 (OriginLab Corp, Northampton, MA, USA), and Excel (Microsoft, Redmond, WA, USA) were used for data acquisition and analysis. The concentration–response relationships for drug-induced blockage were calculated using SigmaPlot (Systat Software, San Jose, CA, USA). […] Data are presented as the means ± SEM, and n represents the number of experimental replicates. Statistical significance was determined using the Student’s t-test and one-way ANOVA with post hoc testing using Dunnett’s method; p < 0.05 was considered to indicate statistical significance.
For hERG tail current, the cells were depolarized for 2 s to +20 mV from a holding potential of -80 mV followed by a 3 s repolarization back to -40 mV. […] For slow delayed rectifier potassium current (IKs) recording, the cells were depolarized for 3s to +60 mV from a holding potential of -80 mV, followed by a 3 s repolarization back to -40 mV (Fig 2B). […]

WT hERG = WT hERG (Homo sapiens, UniProt Q12809); assay: Alanine scanning: wild-type hERG current in HEK-293 cells
Description: The hERG mutations were constructed by site-directed mutagenesis of WT hERG cDNA in pcDNA3.1 vector using the QuickChange Site-Directed Mutagenesis Kit (Stratagene), and the integrity of the construct was verified by DNA sequencing. The WT hERG (generously donated by Professor Ho, Seoul National University, Korea) and mutant channels were transiently expressed in an HEK-293 cell line using Lipofectamine 2000 (Gibco), according to the manufacturer’s recommendations.

INa in hiPSC-CMs = INa in hiPSC-CMs (Homo sapiens, UniProt Q14524); assay: INa current in hiPSC-CMs (voltage clamp); format: cell-based; set-up: INa current: unit not given here
Sequence of INa in hiPSC-CMs (Q14524 212-1075 limits assumed): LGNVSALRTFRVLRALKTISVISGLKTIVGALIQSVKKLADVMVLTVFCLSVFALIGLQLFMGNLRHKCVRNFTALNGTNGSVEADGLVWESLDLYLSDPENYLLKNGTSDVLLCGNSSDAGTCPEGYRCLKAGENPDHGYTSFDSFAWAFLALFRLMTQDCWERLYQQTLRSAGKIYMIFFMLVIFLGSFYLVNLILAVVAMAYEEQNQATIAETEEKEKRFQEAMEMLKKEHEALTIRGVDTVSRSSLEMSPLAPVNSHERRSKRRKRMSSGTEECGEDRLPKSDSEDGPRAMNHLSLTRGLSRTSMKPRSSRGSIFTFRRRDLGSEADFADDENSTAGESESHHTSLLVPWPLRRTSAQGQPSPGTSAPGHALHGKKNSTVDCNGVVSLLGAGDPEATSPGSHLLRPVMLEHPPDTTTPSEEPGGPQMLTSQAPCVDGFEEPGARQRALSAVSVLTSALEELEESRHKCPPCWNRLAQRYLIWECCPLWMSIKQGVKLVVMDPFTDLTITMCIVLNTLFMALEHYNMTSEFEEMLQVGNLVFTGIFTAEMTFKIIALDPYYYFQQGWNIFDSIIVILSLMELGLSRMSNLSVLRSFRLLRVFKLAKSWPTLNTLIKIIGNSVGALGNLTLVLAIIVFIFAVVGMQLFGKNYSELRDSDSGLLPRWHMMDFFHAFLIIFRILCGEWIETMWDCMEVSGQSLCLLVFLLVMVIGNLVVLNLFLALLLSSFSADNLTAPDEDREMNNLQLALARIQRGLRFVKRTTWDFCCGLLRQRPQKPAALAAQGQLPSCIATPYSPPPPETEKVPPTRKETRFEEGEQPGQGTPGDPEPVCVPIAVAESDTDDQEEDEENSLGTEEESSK
Sequence of INa in hiPSC-CMs (Q14524 1131-2016 limits assumed): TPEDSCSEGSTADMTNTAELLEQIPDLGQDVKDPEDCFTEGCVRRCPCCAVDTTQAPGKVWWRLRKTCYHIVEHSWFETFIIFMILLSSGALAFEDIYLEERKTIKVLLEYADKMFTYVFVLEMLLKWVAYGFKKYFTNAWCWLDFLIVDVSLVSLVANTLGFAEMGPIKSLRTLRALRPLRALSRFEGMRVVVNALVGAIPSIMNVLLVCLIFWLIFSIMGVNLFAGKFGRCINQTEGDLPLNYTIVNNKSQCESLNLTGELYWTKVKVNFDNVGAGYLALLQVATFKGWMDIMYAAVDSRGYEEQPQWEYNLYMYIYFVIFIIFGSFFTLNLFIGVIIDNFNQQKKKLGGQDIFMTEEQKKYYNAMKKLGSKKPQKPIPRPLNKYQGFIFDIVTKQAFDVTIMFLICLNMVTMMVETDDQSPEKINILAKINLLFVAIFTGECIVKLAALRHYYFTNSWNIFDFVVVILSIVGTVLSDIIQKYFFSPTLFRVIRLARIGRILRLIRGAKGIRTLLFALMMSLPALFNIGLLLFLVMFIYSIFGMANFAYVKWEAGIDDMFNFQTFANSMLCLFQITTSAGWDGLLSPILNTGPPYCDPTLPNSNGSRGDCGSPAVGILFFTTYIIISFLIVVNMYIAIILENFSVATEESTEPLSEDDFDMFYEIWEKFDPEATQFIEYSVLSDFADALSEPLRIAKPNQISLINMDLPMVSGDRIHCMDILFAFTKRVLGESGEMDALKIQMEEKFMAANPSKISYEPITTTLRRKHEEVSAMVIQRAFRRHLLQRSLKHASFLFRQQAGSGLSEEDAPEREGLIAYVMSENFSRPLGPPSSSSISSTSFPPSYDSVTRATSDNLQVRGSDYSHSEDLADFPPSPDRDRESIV

T1 sequence (Q14524 whole entry, species assumed): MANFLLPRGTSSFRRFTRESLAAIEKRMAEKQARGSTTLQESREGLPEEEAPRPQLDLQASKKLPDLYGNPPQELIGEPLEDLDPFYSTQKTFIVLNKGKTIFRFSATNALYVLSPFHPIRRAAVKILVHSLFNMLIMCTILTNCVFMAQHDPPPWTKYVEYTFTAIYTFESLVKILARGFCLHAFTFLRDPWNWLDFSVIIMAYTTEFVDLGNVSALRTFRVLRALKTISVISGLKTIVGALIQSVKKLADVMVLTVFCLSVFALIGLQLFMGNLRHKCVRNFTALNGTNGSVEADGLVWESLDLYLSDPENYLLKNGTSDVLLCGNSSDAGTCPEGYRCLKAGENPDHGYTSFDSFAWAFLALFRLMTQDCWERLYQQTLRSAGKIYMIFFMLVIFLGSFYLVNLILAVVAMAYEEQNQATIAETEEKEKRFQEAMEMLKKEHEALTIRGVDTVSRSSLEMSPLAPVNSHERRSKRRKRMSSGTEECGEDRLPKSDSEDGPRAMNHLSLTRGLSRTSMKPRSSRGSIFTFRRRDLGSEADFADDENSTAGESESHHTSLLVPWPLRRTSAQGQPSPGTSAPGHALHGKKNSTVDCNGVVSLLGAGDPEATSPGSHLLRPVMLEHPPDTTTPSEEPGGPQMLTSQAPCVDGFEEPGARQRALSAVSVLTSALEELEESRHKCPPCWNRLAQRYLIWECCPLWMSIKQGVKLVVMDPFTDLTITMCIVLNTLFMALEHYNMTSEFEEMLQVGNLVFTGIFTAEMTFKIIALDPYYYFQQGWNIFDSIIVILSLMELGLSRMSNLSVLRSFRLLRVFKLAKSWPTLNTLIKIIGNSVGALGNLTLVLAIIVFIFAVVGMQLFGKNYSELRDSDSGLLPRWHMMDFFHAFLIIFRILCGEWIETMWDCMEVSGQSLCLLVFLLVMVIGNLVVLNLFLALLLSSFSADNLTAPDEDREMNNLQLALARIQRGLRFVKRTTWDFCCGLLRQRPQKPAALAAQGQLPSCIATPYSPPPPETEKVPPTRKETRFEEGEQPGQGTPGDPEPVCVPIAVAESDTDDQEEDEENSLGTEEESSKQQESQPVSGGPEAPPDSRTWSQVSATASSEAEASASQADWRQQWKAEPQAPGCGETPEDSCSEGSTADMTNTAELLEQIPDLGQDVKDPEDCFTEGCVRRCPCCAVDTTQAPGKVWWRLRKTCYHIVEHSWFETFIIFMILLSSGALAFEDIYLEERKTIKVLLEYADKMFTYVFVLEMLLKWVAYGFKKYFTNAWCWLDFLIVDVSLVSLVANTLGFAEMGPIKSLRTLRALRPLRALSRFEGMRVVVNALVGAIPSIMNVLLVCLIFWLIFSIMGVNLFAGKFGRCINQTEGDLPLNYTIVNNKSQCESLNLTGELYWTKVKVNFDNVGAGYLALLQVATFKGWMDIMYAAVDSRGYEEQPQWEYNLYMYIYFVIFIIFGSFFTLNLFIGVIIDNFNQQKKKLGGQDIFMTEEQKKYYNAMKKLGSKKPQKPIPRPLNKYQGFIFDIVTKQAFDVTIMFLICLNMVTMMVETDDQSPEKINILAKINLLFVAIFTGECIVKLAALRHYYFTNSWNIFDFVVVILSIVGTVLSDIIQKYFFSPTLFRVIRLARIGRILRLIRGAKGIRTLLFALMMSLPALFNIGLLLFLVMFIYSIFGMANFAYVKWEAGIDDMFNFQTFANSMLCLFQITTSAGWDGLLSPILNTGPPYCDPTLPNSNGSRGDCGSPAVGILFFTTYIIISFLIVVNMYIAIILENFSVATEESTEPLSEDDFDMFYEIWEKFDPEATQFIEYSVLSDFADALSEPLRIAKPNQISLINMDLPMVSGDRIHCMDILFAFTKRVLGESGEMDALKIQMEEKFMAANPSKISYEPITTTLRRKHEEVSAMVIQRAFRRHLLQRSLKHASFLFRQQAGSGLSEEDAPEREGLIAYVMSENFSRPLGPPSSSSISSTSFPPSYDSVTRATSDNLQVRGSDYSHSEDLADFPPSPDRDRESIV
Sequence of WT hERG (Q12809 whole entry): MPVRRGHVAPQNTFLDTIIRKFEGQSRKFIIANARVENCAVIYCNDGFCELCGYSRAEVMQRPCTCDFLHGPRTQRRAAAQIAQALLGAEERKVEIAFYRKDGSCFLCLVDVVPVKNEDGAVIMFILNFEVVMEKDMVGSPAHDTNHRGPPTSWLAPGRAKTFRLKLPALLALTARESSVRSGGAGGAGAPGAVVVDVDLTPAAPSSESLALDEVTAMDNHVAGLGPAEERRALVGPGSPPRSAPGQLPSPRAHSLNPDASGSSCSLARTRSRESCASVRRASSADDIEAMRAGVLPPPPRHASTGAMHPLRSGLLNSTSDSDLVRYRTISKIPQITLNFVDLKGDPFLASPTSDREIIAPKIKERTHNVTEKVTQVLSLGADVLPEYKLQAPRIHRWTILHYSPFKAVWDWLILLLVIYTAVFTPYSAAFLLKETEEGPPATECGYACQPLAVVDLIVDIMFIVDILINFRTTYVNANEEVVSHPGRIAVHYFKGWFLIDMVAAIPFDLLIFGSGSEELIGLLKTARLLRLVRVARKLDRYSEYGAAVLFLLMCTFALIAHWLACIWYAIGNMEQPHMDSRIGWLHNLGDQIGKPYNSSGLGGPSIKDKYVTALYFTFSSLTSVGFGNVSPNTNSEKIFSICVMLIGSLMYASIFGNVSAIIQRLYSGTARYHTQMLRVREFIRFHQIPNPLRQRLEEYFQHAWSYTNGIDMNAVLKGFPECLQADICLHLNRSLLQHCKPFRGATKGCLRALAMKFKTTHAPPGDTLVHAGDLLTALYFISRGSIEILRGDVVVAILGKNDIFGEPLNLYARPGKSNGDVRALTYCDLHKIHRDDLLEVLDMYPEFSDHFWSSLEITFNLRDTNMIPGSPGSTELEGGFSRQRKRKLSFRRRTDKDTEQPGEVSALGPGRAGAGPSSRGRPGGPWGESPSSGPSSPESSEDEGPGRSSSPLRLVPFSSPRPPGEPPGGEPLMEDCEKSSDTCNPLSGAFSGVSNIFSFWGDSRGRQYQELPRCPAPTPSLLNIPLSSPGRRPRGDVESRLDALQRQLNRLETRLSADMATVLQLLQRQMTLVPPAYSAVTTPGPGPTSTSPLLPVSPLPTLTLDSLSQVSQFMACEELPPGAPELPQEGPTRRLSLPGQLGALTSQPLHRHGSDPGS

## COc1cc2c(Nc3ccc(Br)cc3F)ncnc2cc1OCC1CCN(C)CC1 [Vandetanib]
hiPSC-CMs; 0.3 μM
  APA: 104.2 ± 3.0 mV
  APD50: 349.3 ± 50.9 ms
  APD90: 481.0 ± 53.9 ms
  MDP: -66.9 ± 2.3 mV
  Vmax: 40.3 ± 13.9 V/s
hiPSC-CMs; 1 μM
  APA: 105.5 ± 3.6 mV
  APD50: 596.4 ± 158.8 ms
  APD90: 880.9 ± 192.6 ms
  MDP: -64.5 ± 2.4 mV
  Vmax: 36.0 ± 13.0 V/s
hiPSC-CMs; 3 μM
  APA: 100.7 ± 2.2 mV
  APD50: 1243.0 ± 386.1 ms
  APD90: 2047.9 ± 597.1 ms
  Decrease of APA compared to vehicle control: 4.2%
  Decrease of MDP compared to vehicle control: 9%
  MDP: -61.0 ± 1.5 mV
  Vmax: 19.5 ± 6.5 V/s
hiPSC-CMs; 3 μM, n = 6 cells
  Early after depolarization (EAD): induced at 3 μM of vandetanib in all cells tested
hiPSC-CMs; tested 0.3, 1, 3 μM
  Concentration from which prolongation of APD50 and APD90 was observed: ≥ 1 µM
SCN5A (INa); 10 μM
  INa current: -948.9 ± 24.2
SCN5A (INa); 30 μM
  INa current: -743.0 ± 85.1
SCN5A (INa); 100 μM
  INa current: -94.2 ± 36.8
SCN5A (INa); SCN5A-encoded HEK293 cells
  IC50: 36.6 µM
WT hERG; 3 μM
  WT hERG current: 208.9 ± 21.6
WT hERG; human, HEK-293 cells transiently expressing wild-type hERG
  inhibition at 3 μM: ~86.4%
INa in hiPSC-CMs
  IC50: 2.72 µM
INa in hiPSC-CMs; 1 μM
  INa current: -4046.1 ± 53.7
INa in hiPSC-CMs; 3 μM
  INa current: -2284.0 ± 79.5
INa in hiPSC-CMs; 10 μM
  INa current: -1205.7 ± 89.8
INa in hiPSC-CMs; 30 μM
  INa current: -643.2 ± 33.6
